Assay results published in patent US20110251238A1, “PPAR AGONIST COMPOSITIONS AND METHODS OF USE” (BIOPHARMED, priority 2008, published 2011).
Values after ≈ are worked out from the molar mass of the structure shown. Where two headings read alike, the source gives them in different places.

Key:
[1] = system: KB3 (epitheloid lung cancer) cell lines; assay: Cell growth inhibition (cytotoxicity), MTS assay, KB3 cell line; type: cell-based; conditions: Table 3A, MTS assay, triplicate, read-out: KB3 IC50
Procedure: Cell growth inhibition was determined by the MTS assay; the number of viable cells were proportional to the extent of formazan production in the presence or absence of drugs. […]

[2] = system: A549 (human lung adenocarcinoma epithelial); assay: Growth inhibition, MTT colorimetric assay, A549; type: cell-based; conditions: read-out: IC50 A549
Procedure: (§1) A549 (human lung adenocarcinoma epithelial), BxPC3 (pancreatic cancer), LoVo (colon cancer), MCF-7 (epithelial breast cancer), PC3 (human prostate cancer), Hs683 (human glioma), T98G (glioblastoma), U373 (human glioblastoma-astrocytoma), U138 MG (human glioma), epithelial-like), SKMEL28 (human melanoma), B16-F10 (mouse melanoma) and RhTP (rhabdomyosarcoma) cell lines were cultured in presence of the drugs for 3 days. The cytotoxic activity is expressed as (IC50). Inhibition of cell proliferation measured by the MTT colorimetric assay. The values reported in Table 4 are means of six distinct values.

[3] = system: BxPC3 (pancreatic cancer); assay: Growth inhibition, MTT colorimetric assay, BxPC3; type: cell-based, human; conditions: read-out: IC50 BxPC3
Procedure: Cells are cultured at 37° C. in Falcon culture dishes, incubated at 5% CO2 in a suitable culture medium available from Invitrogen Corp. Anti-proliferative activity is determined by an MTT assay (bromide of (3-[4,5-dimethylthiazolium-yl]diphenyltetrazolium)). According to one standard protocol, absorbance is measured at 570 nm (see Dumont et al. (2007) Neoplasia 9: 766-776.
as §1

[4] = system: LoVo (colon cancer); assay: Growth inhibition, MTT colorimetric assay, LoVo; type: cell-based; conditions: read-out: IC50 LoVo
Procedure: as §1

[5] = system: MCF-7 (epithelial breast cancer); assay: Growth inhibition, MTT colorimetric assay, MCF7; type: cell-based; conditions: read-out: IC50 MCF7
Procedure: as §1

[6] = system: PC3 (human prostate cancer); assay: Growth inhibition, MTT colorimetric assay, PC3; type: cell-based; conditions: read-out: IC50 PC3
Procedure: as §1, with “Compounds that met the criteria for activity on KB3 cells were further tested for drug growth inhibitory activity in 5 carcinoma, 6 glioma and 3 melanoma cell lines, shown in Table 4. A549” for “A549”, “values. The standard errors are <5% as compared to the mean values.” for “values.”

[7] = system: Hs683 (human glioma); assay: Growth inhibition, MTT colorimetric assay, HS683; type: cell-based; conditions: read-out: IC50 HS683
Procedure: as §1

[8] = system: T98G (glioblastoma); assay: cells; type: cell-based; conditions: read-out: IC50 T98G
Procedure: as §1

[9] = system: U373 (human glioblastoma-astrocytoma); assay: Growth inhibition, MTT colorimetric assay, U373; type: cell-based; conditions: read-out: IC50 U373
Procedure: as §1, with “Compounds that met the criteria for activity on KB3 cells were further tested for drug growth inhibitory activity in 5 carcinoma, 6 glioma and 3 melanoma cell lines, shown in Table 4. A549” for “A549”, “values. The standard errors are <5% as compared to the mean values.” for “values.”

[10] = system: U138 MG (human glioma); assay: Growth inhibition, MTT colorimetric assay, U138; type: cell-based; conditions: read-out: IC50 U138
Procedure: as §1, with “Compounds that met the criteria for activity on KB3 cells were further tested for drug growth inhibitory activity in 5 carcinoma, 6 glioma and 3 melanoma cell lines, shown in Table 4. A549” for “A549”, “values. The standard errors are <5% as compared to the mean values.” for “values.”

[11] = system: GL19; assay: Growth inhibition, MTT colorimetric assay, GL19; type: cell-based; conditions: read-out: IC50 GL19
Procedure: as §1, with “Compounds that met the criteria for activity on KB3 cells were further tested for drug growth inhibitory activity in 5 carcinoma, 6 glioma and 3 melanoma cell lines, shown in Table 4. A549” for “A549”, “values. The standard errors are <5% as compared to the mean values.” for “values.”

[12] = system: RhTP (rhabdomyosarcoma); assay: Growth inhibition, MTT colorimetric assay, RhTp; type: cell-based; conditions: read-out: IC50 RhTp
Procedure: as §1, with “Compounds that met the criteria for activity on KB3 cells were further tested for drug growth inhibitory activity in 5 carcinoma, 6 glioma and 3 melanoma cell lines, shown in Table 4. A549” for “A549”, “values. The standard errors are <5% as compared to the mean values.” for “values.”

[13] = system: KaKa; assay: Growth inhibition, MTT colorimetric assay, KaKa; type: cell-based; conditions: read-out: IC50 KaKa
Procedure: as §1, with “Compounds that met the criteria for activity on KB3 cells were further tested for drug growth inhibitory activity in 5 carcinoma, 6 glioma and 3 melanoma cell lines, shown in Table 4. A549” for “A549”, “values. The standard errors are <5% as compared to the mean values.” for “values.”

[14] = system: Host; assay: Growth inhibition, MTT colorimetric assay, Host; type: cell-based; conditions: read-out: IC50 Host
Procedure: as §1, with “Compounds that met the criteria for activity on KB3 cells were further tested for drug growth inhibitory activity in 5 carcinoma, 6 glioma and 3 melanoma cell lines, shown in Table 4. A549” for “A549”, “values. The standard errors are <5% as compared to the mean values.” for “values.”

[15] = system: SKMEL28 (human melanoma); assay: Growth inhibition, MTT colorimetric assay, SKMEL-28; type: cell-based; conditions: read-out: IC50 SKMEL-28
Procedure: as §1, with “Compounds that met the criteria for activity on KB3 cells were further tested for drug growth inhibitory activity in 5 carcinoma, 6 glioma and 3 melanoma cell lines, shown in Table 4. A549” for “A549”, “values. The standard errors are <5% as compared to the mean values.” for “values.”

[16] = system: B16-F10 (mouse melanoma); assay: Growth inhibition, MTT colorimetric assay, B16F10; type: cell-based; conditions: read-out: IC50 B16F10
Procedure: as §1, with “Compounds that met the criteria for activity on KB3 cells were further tested for drug growth inhibitory activity in 5 carcinoma, 6 glioma and 3 melanoma cell lines, shown in Table 4. A549” for “A549”, “values. The standard errors are <5% as compared to the mean values.” for “values.”

[17] = system: bloodstream forms of T. brucei and T. congolense; assay: Trypanocidal activity in vitro, Alamar Blue assay; type: cell-based, Trypanosoma brucei and T. congolense
From the text: Trypanosoma brucei and T. congolense are the causative agents of sleeping sickness in humans and nagana in cattle, respectively. The protozoan parasites live extracellularlyin blood and tissue fluids of mammals and are transmitted by the bite of infected tsetse flies (Glossina spp.). Here the trypanocidal activity against bloodstream forms of T. brucei and T. congolense of bis-8-hydroxy quinoline N-substituted benzylamines derivatives was investigated in vitro, according to methods described in. Steverding et al. (2006) Kinetoplastid Biology and Disease, 5(3): 1-5; Hongmance et al., (2007) Antimicrob. Agents Chemother. 51:1105-1106; and Zhao et al., (2005) Bio-org. Med. Chem.; 13: 3921-3926. Cells were seeded into 96-well tissue culture plates in 200 μl medium containing various concentrations of analogues dissolved in H2O. The controls contained the respective solvent alone. […] After 24 h (trypanosomes) or 43 h (HL-60) incubation, 20 μl of the colorimetric viability indicator Alamar Blue® was added to each well. The cells were incubated for a further 24 h (trypanosomes) or 5 h (HL-60) so that the total incubation time was 48 h. Then, the plates were read on a Dynatech MR5000ELISA reader (Denkendorf, Germany),using a test wavelength of 550 nm and a reference wave length of 630 nm. Each test was set up in duplicate and repeated three times. For comparison, the general cytotoxicity of the compounds was assayed with human myeloid leukaemia HL-60 cells. The anti-trypanosomal activities and the general cytotoxicities of the new analogues were evaluated using the Alamar Blue® assay.

[18] = Homo sapiens, A549, 72 h, carcinoma, 3 days with drug, means of six values, unit inferred
[19] = Homo sapiens, BXPC-3, 72 h, carcinoma, 3 days with drug, means of six values, unit inferred
[20] = Homo sapiens, LoVo, 72 h, carcinoma, 3 days with drug, means of six values, unit inferred
[21] = Homo sapiens, MCF7, 72 h, carcinoma, 3 days with drug, means of six values, unit inferred
[22] = Homo sapiens, 72 h, carcinoma, 3 days with drug, means of six values, unit inferred
[23] = Homo sapiens, Hs 683, 72 h, glioma, 3 days with drug, means of six values, unit inferred
[24] = Homo sapiens, T98G, 72 h, glioma, 3 days with drug, means of six values, unit inferred
[25] = Homo sapiens, U373 MG, 72 h, glioma, 3 days with drug, means of six values, unit inferred
[26] = Homo sapiens, U138-MG, 72 h, glioma, 3 days with drug, means of six values, unit inferred
[27] = GL19, 72 h, 3 days with drug, means of six values, unit inferred
[28] = 72 h, 3 days with drug, means of six values, unit inferred
[29] = Homo sapiens, SK-MEL-28, 72 h, melanoma, 3 days with drug, means of six values, unit inferred
[30] = Mus musculus, B16-F10, 72 h, melanoma, 3 days with drug, means of six values, unit inferred
[31] = 50% growth inhibition, 48 h total incubation, read-out: GI50
[32] = lowest concentration at which all cells were killed, 48 h total incubation, read-out: MIC
[33] = carcinoma, 3 days with drug, means of six values, unit inferred
[34] = glioma, 3 days with drug, means of six values, unit inferred
[35] = 3 days with drug, means of six values, unit inferred
[36] = melanoma, 3 days with drug, means of six values, unit inferred

SMILES	IC50 ([1]; KB3)	IC50 [2, 18]	IC50 [3, 19]	IC50 [4, 20]	IC50 [5, 21]	IC50 [6, 22]	IC50 [7, 23]	IC50 [8, 24]	IC50 [9, 25]	IC50 [10, 26]	IC50 [11, 27]	IC50 [12, 28]	IC50 [13, 28]	IC50 [14, 28]	IC50 [15, 29]	IC50 [16, 30]	GI50 [17, 31]	MIC [17, 32]	further results
Oc1ccc(CN(Cc2cccs2)Cc2ccc(O)c3ncccc23)c2cccnc12 [BPM18,202, 5,5′-(thiophen-2-ylmethylazanediyl)bis(methylene)diquinolin-8-ol]	2 nM																		IC50 ([2]; Homo sapiens, A549, 72 h): 27 nM; IC50 ([3]; Homo sapiens, BXPC-3, 72 h): 89 nM; IC50 ([4]; Homo sapiens, LoVo, 72 h): 40 nM; IC50 ([5]; Homo sapiens, MCF7, 72 h): 35 nM; IC50 ([6]; Homo sapiens, 72 h): 44 nM; IC50 ([7]; Homo sapiens, Hs 683, 72 h): 35 nM; IC50 ([8]; Homo sapiens, T98G, 72 h): 88 nM; IC50 ([9]; Homo sapiens, U373 MG, 72 h): 85 nM; IC50 ([10]; Homo sapiens, U138-MG, 72 h): 44 nM; IC50 ([11]; GL19, 72 h): 3450 nM; IC50 ([12]; 72 h): 79 nM; IC50 ([13]; 72 h): 1760 nM; IC50 ([14]; 72 h): 1730 nM; IC50 ([15]; Homo sapiens, SK-MEL-28, 72 h): 4830 nM; IC50 ([16]; Mus musculus, B16-F10, 72 h): 86 nM; GI50 ([17]; 48 h): 310 ± 10 nM; MIC ([17]; 48 h): 1 µM (≈ 0.428 µg/mL)
Oc1ccc(CN(Cc2ccccc2)Cc2ccc(O)c3ncccc23)c2cccnc12 [BPM18,725, 5,5′-(benzylazanediyl)bis(methylene)diquinolin-8-ol]	20 nM	54 nM	7440 nM	91 nM	97 nM	258 nM	76 nM	249 nM	357 nM	95 nM	3450 nM	97 nM	2430 nM	2160 nM	> 10000 nM	765 nM	300 ± 10 nM	1 µM (≈ 0.422 µg/mL)	
Oc1ccc(CN(Cc2ccccc2C(F)(F)F)Cc2ccc(O)c3ncccc23)c2cccnc12 [BPM19,178, 5,5-(2-(Trifluoromethyl)benzylazanediyl)bis(methylene)diquinolin-8-ol]																	330 ± 10 nM	1 µM (≈ 0.489 µg/mL)	IC50 [1]: 100 nM; IC50 [2, 33]: 46 nM; IC50 [3, 33]: 274 nM; IC50 [4, 33]: 93 nM; IC50 [5, 33]: 88 nM; IC50 [6, 33]: 179 nM; IC50 [7, 34]: 64 nM; IC50 [8, 34]: 210 nM; IC50 [9, 34]: 78 nM; IC50 [10, 34]: 80 nM; IC50 [11, 35]: 472 nM; IC50 [12, 35]: 87 nM; IC50 [13, 35]: 887 nM; IC50 [14, 35]: 912 nM; IC50 [15, 36]: 6380 nM; IC50 [16, 36]: 98 nM
Oc1ccc(CN(Cc2cccc(C(F)(F)F)c2)Cc2ccc(O)c3ncccc23)c2cccnc12 [BPM19,189, 5,5′-(3-(trifluoromethyl)benzylazanediyl)bis(methylene)diquinolin-8-ol]	2200 nM	38 nM	167 nM	94 nM	30 nM	37 nM	36 nM	57 nM	65 nM	47 nM	674 nM	69 nM	6470 nM	679 nM	> 10000 nM	89 nM	310 ± 10 nM	1 µM (≈ 0.489 µg/mL)	
